In publication PMC4980415 (Psychopharmacology, 2016):
Where a name gives a salt, the structure may show the parent alone.

Assays:
[1] = healthy volunteers and patients with schizophrenia; no reference given; cited from earlier work
NK3 (h), neurokinin = target: T1, NK3 (h), neurokinin (Homo sapiens, UniProt P29371); assay: Off-target binding, General SEP II panel; settings: 10 μM ITI-214, mean of n = 2
T1 construct: Caliper Life Sciences (contract screen)
T1 sequence (P29371 1-465): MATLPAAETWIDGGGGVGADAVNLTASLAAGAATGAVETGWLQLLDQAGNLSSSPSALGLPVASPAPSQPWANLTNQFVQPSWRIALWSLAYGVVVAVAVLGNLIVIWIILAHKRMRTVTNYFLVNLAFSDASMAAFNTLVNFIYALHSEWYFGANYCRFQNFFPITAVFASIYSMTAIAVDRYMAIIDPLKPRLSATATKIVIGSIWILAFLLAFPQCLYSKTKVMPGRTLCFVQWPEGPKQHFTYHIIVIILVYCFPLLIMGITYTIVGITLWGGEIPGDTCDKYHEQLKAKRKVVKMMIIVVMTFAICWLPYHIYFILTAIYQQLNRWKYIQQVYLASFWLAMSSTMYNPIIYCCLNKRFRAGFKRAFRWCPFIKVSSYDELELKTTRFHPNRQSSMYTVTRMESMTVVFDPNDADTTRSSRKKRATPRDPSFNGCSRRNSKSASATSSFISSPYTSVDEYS

[2] = system: early memory consolidation in male Wistar rats; assay: Novel object recognition (NOR): early consolidation, drug 4 min after T1; format: in vivo, rat; settings: 4 min after T1 (head prints T2 +4 min)
Experimental: The drug was administered, per os (po), by gavage to rats in a volume of 2 ml/kg body weight. Oral dosing solutions were prepared fresh daily. […] The pH of the dosing solution was adjusted to ~pH 5.5 by dropwise addition of 0.1 N NaOH in saline and volume adjusted by addition of saline in preparation for intraperitoneal (ip) dosing. […] Control treatments were always the vehicle solutions of the corresponding drugs.
The object recognition test was performed as described elsewhere (Ennaceur and Delacour [1988]; Akkerman et al. 2014). The apparatus consisted of a circular arena, 83 cm in diameter. Half of the 40-cm-high wall was made of gray polyvinyl chloride, the other half of transparent polyvinyl chloride. The light intensity was equal in the different parts of the apparatus, as fluorescent red tubes provided a constant illumination of about 20 lx on the floor of the apparatus. Two objects were placed in a symmetrical position at about 10 cm from the gray wall. Four different sets of objects were used. The different objects were (1) a cone consisting of a gray polyvinyl chloride base (maximal diameter 18 cm) with a collar on top made of brass (total height 16 cm), (2) a standard 1 L transparent glass bottle (diameter 10 cm, height 22 cm) filled with water, (3) a large metal cube (10.0 × 5.0 × 7.5 cm) with two holes (diameter 1.9 cm), and (4) a large aluminum cube with a tapering top (13.0 × 8.0 × 8.0 cm). The objects used in this study were carefully selected to be “novelty neutral,” that is to say the rats have no innate preference for one over the other. In all cases, objects were of sufficient size and weight that rats could not move the objects.
A testing session consisted of two trials. The duration of each trial was 3 min. During the first trial (T1), the apparatus contained two identical objects (samples). Rats were placed in the apparatus facing the wall at the middle of the front (transparent) segment. After the first exploration period, the rat was put back in its home cage. Subsequently, after a 24-h delay interval, the rat was put in the apparatus for the second trial (T2). The times spent in exploring each object during T1 and T2 were recorded manually using a personal computer.
Exploration was defined as follows: directing the nose to the object at a distance of no more than 2 cm and/or touching the object with the nose. Sitting on the object was not considered as exploratory behavior. In order to avoid the presence of olfactory cues, the objects were always thoroughly cleaned with a 70 % ethanol solution before each trial. All combinations and locations of objects were used in a balanced manner to reduce potential biases due to preferences for particular locations or objects.
During the first 2 weeks after animal arrival, the animals were handled daily. They were then adapted to the procedure over the period of 2 days by allowing them to explore the apparatus (without any objects) for 3 min twice each day. […] After this, the rats were assigned to treatment conditions in a balanced manner, thereby insuring an equal distribution of object combinations among the treatment conditions. […] In all experiments, a 24-h inter-trial interval was used. In all cases, the experimenter was unaware of the treatment conditions that were being tested.
The basic measure recorded was the time spent by each rat exploring an object during T1 and T2. The time spent in exploring the two identical samples was represented by “a1” and “a2.” The time spent in T2 in exploring the sample and new object was represented by “a” and “b,” respectively. The following variables were calculated: e1 = a1 + a2, e2 = a + b, and d2 = (b − a) / e2. The e1 and e2 are measures of the total exploration time of both objects during T1 and T2, respectively. Differences in exploration times between treatment conditions were analyzed using a t test or one-way ANOVA. […]

Structure (SMILES): CN1C(=O)c2c(nn(Cc3ccc(-c4cccc(F)n4)cc3)c2Nc2ccccc2)N2C1=N[C@@H]1CCC[C@@H]12 [ITI-214, (6aR,9aS)-2-(4-(6-fluoropyridin-2-yl)benzyl)-5-methyl-3-(phenylamino)-5,6a,7,8,9,9a-hexahydrocyclopenta-[4,5]imidazo[1,2-a]pyrazolo[4,3-e]pyrimidin-4-(2H)-one phosphate salt]
- safety and tolerability [1]: safe and well-tolerated
- % Binding (NK3 (h), neurokinin): 64.65%
- Exploration time e1 (T1) ([2]; 1 mg/kg po): 26.36 (1.93) s
- Exploration time e2 (T2) ([2]; 1 mg/kg po): 29.66 (1.94) s
- Exploration time e1 (T1) ([2]; 3 mg/kg po): 25.02 (2.20) s
- Exploration time e2 (T2) ([2]; 3 mg/kg po): 30.55 (1.84) s
- Exploration time e1 (T1) ([2]; 10 mg/kg po): 30.01 (1.62) s
- Exploration time e2 (T2) ([2]; 10 mg/kg po): 31.35 (1.71) s
